Assay results taken from publication PMC12374861, “Synthetic Peptides Suppress Nervous Necrosis Virus Absorption and Improve Survival Rates in European Sea Bass” (Marine Biotechnology (New York, N.y.), 2025).
Ends that are not written are not given here.

Tests used:
E-11 cells = experiment: MTT cytotoxicity test on E-11 cells; format: cell-based; conditions: 24 h at 25 °C, mean of n = 3, control = 100.0
Description: Synthetic peptides cytotoxicity on E − 11 cells was assessed using the MTT (Sigma) test with serial peptide dilutions (1000–4 µg/mL in L − 15 medium; n = 3; 24 h at 25 °C) as elsewhere (Cervera et al. [2024c]). Absorbance was measured at 570 nm (BMG Labtech); blanks lacked cells. Cell viability was calculated as the OD ratio of treated to untreated cells × 100, normalized at 690 nm.
Supplementary data S4: Cell viability (%) of E-11 cells after incubation with the synthetic peptides for 24 h. Data represent the mean ± SEM (n=3).

RGNNV [1] = experiment: RGNNV adsorption efficiency, progeny production and replication kinetics in P4 pre-treated E-11 cells; format: cell-based, red-spotted grouper nervous necrosis virus
Description: Based on in vivo results (see below), the P4 effect on RGNNV replication was further assessed by analysing viral adsorption efficiency and progeny production, as previously (Valero et al. [2021b]) with slight modifications. Intracellular and extracellular viral kinetics were examined using semi-confluent E − 11 monolayers in 12-well plates (Sarstedt) treated with P4 (500 µg/mL) for 24 h; untreated cells served as controls. After treatment, supernatants were removed, cells washed thrice, and infected with RGNNV (MOI 0.01) for 45 min. Residual inoculum was collected, and monolayers washed and overlaid with L-15 for incubation at 25 °C with daily CPE monitoring. Supernatants were collected at 8, 12, 24, and 48 h post-infection (hpi); cells were washed, scraped and stored. For extracellular kinetics, supernatants were collected until 168 hpi. All samples were clarified by centrifugation (2000 × g, 10 min). Titrations were performed for: (i) total inoculated virus (TIV), (ii) non-attached virus (NAV), and (iii) viral progeny (VP). Assays were conducted in triplicate.
Formulas used for impact of synthetic peptides on RGNNV replication in vitro assay are the following: • AbsorbedvirusAV=TIV-NAV • AdsorptionefficacyAE=AV/TIV×100 • Productionrate(PR)=VP/AV • Relativeratioofproduction(RRP)=PRP4+RGNNV/PRRGNNV
Fig. 3 The pre-treatment with P4 synthetic peptide partially disrupts the replication of RGNNV in vitro. (A) Intracellular replication kinetics; (B) Viral production in cell supernatants; and (C, D) Genome synthesis in cell lysates by means of transcriptional levels of rdrp (C) and cp (D) genes. Monolayers of E-11 were incubated with 500 µg/mL of P4 or untreated for 24 h and then infected with […] nervous necrosis virus (RGNNV) (n = 3). Supernatants and cell lysates were collected at 8, 12, 24, 48 h post-infection (hpi). Additionally, supernatants were sampled at 168 hpi for extracellular replication kinetic analysis. Infectious titers were determined by the end-point titration method (Reed and Müench [1938]) and expressed as mean Log10 TCID50/mL ± standard error of the mean (SEM). Relative expression was presented as the mean ± SEM (n = 3). Asterisks indicate significant differences among groups according to the Student-t test (p < 0.05)

RGNNV [2] = experiment: RGNNV in vivo bath challenge of European sea bass with peptide injection after infection; parameters: species or system European sea bass (Dicentrarchus labrax); conditions: for Relative percent survival (RPS): juvenile sea bass, bath infection 3.16 × 10^4 TCID₅₀ RGNNV/mL for 2 h, then intramuscular injection 1 µg peptide/g, 23 dpi, infected PBS group 63.6% survival; for RGNNV cp gene expression in the brain / RGNNV rdrp gene expression in the brain: qPCR relative to ef1a, 2 dpi, n = 6, 1 µg peptide/g i.m. after RGNNV bath challenge; for RGNNV cp gene expression in the brain: Fig. 5A; for RGNNV rdrp gene expression in the brain: Fig. 5B
Description: RGNNV In vivo Challenge of European Sea Bass
A total of 375 sea bass were randomly assigned to eight experimental groups (in duplicate) and acclimated for 15 days. Seven groups were infected by immersion (10 L; 3.16 × 10^4 TCID₅₀ RGNNV/mL; 2 h), while a mock-infected control received conditioned medium. […] Combinations were selected according to the results obtained in the competitive in vitro assay against RGNNV (see below). Disease signs and mortalities were monitored daily for 23 days post-infection (dpi) using a four-rank scale (Valero et al. [2021a]). Fish (n = 6/group/time-point) were sampled at 2 and 23 dpi, euthanized with clove oil, bled, and weighed. Brain, NNV target tissue, and head-kidney, major hematopoietic tissue in fish, were dissected, frozen in TRIzol (Life Technologies), and stored at − 80 °C.
For viral load analysis, total RNA was extracted from sea bass brain and head-kidney using TRIzol (Life Technologies) and from E − 11 cells using the GenJET RNA Purification Kit (Thermo Fisher Scientific), following manufacturer protocols. One microgram of RNA was DNAse I-treated (1 U/µL; Thermo Scientific), and cDNA was synthesized using Superscript IV Reverse Transcriptase (Invitrogen). qPCR was performed on a QuantStudio 5 Flex (Applied Biosystems) to quantify cp, rdrp and mx genes using PowerUp SYBR Green reagents (Applied Biosystems). The protocol included a 95 °C hold, then 40 cycles (95 °C; 15 s) and 60 °C for 1 min. Relative expression was calculated using the 2^⁻ΔCt method (Livak and Schmittgen [2001]), with ef1a as the endogenous control. Primers (Supplementary Data S2) were validated by melting curve analysis and negative controls.
Fish mortality was analysed using Kaplan–Meier survival curves with log-rank (Mantel–Cox) tests for significance. Relative gene expression was evaluated by one-way ANOVA (p ≤ 0.05) followed by Tukey’s test. Viral kinetics were compared between P4-treated and untreated groups using Student’s t-test (p ≤ 0.05) at specific time points. All analyses were performed with IBM SPSS Statistics 20.
Fig. 4 Therapeutic administration of synthetic peptides improves survival and symptomatology in […] (RGNNV)-infected European sea bass juveniles. […] A mock-infected group was treated twice with only PBS. (A) Kaplan–Meier survival curves; (B) Heat-map representing the cumulated number of fish showing clinical signs of VER disease attending to their severity: (1) changes of the color of the skin, slower rhythm of swimming and/or slower reaction to external stimuli as feeding; (2) alterations in the swimming balance and/or erratic swimming spasms; (3) continuous erratic swimming; and (4) complete incapacity to keep balance, swim and/or move without external stimuli. VER, viral encephalopathy and retinopathy
Fig. 5 Therapeutic administration of synthetic peptides decreased viral loads in the brain without additional mx gene regulation in the sea bass juveniles head-kidney infected with red-spotted grouper nervous necrosis virus (RGNNV). […] A mock-infected group was treated twice with only PBS. (A–C) Transcription levels of RGNNV cp (A) and rdrp (B) genes in the brain and (C) mx gene in the head-kidney. Data represent the relative gene expression mean ± SEM (n = 6). Different letters indicate significant differences among groups according to the ANOVA (p < 0.05)

SJNNV = format: cell-based, striped jack nervous necrosis virus (strain SJNag97); conditions: virus (MOI 0.01) incubated with 500 μg/mL peptide for 15 min at 25 °C, titrated in E-11 cells; control virus + PBS; representative of two independent assays; Fig. 2B
Description: (§1) Parental RGNNV (strain It/411/96), SJNNV (strain SJNag97), and reassortant isolates (RGNNV/SJNNV, 367.2.2005; SJNNV/RGNNV, 389/I96) were used. Viruses were propagated in E − 11 cells cultured in L-15 Leibovitz medium (BioWest) supplemented with 5% FBS, 2 mM L-glutamine, and 100 IU/mL penicillin/streptomycin (Thermo Fisher Scientific) at 25 °C. Infected monolayers were incubated at 25 °C until extensive cytopathic effect (CPE) developed. Supernatants were then harvested, centrifuged, and titrated in triplicate using the end-point dilution method, expressed as TCID₅₀/mL (Reed and Müench [1938]).
(§2) For in vitro antiviral assays, viral cultures (MOI 0.01) from parental and reassortant strains were incubated with peptides (single or combined) using a non-lethal concentration previously tested (500 μg/mL; León et al. [2020]), for 15 min at 25 °C with gentle agitation. Controls were virus samples incubated with PBS (100% viral activity). Treated samples were titrated as previously. After medium removal, cells were exposed to ten-fold viral dilutions in 2% FBS. CPE was monitored daily for 10 days, and viral titres were calculated as TCID₅₀/mL (Reed and Müench [1938]) and expressed as viral titre or percent inhibition relative to controls.
Fig. 2 Designed peptides, single or combined, reduce the NNV absorption in vitro. NNV parental or reassortant genotypes were incubated with 500 μg/mL of the synthetic peptides for 15 min. Then, the viruses were titrated in the E − 11 cell line. Control samples consisted on virus incubated with the same amount of phosphate buffer saline. (A) Viral titer (TCID50/mL) and (B) % of virus inhibition with respect to the controls are represented. Data are representative of two independent assays. […] Each bar was matched to a substance by its colour and by the order of the legend.

RGNNV/SJNNV reassortant = experiment: In vitro antiviral (competition) assay: virus incubated with peptide, then titrated in E-11 cells; format: cell-based, RGNNV/SJNNV reassortant (367.2.2005); conditions: virus (MOI 0.01) incubated with 500 μg/mL peptide for 15 min at 25 °C, control virus + PBS, representative of two independent assays, Fig. 2B
Description: as §1, §2
Fig. 2 Designed peptides, single or combined, reduce the NNV absorption in vitro. […]

Substance	Viability (%) of E-11 cells, mean (E-11 cells; peptide 0.00411 mg/mL)	Viability (%) of E-11 cells, mean (E-11 cells; peptide 0.01234 mg/mL)	Viability (%) of E-11 cells, mean (E-11 cells; peptide 0.03704 mg/mL)	Viability (%) of E-11 cells, mean (E-11 cells; peptide 0.11111 mg/mL)	Viability (%) of E-11 cells, mean (E-11 cells; peptide 0.33333 mg/mL)	Viability (%) of E-11 cells, mean (E-11 cells; peptide 1.00000 mg/mL)	AE, adsorption efficiency (RGNNV [1]; AE = AV/TIV × 100, E-11 cells pre-treated with P4 500 µg/mL 24 h, untreated cells 99.05%)	Intracellular viral replication titre at 48 h post-infection (RGNNV [1]; E-11 cells pre-treated with P4 500 µg/mL 24 h, RGNNV, cell lysates, 48 hpi, untreated cells 2.40 × 10⁶, n = 3, Fig. 3A)	Viral release in cell supernatants at 48 h post-infection (RGNNV [1]; E-11 cells pre-treated with P4 500 µg/mL 24 h, RGNNV, supernatants, 48 hpi, untreated cells 6.77 × 10^4, n = 3, Fig. 3B)	Viral progeny (VP) (RGNNV [1]; E-11 cells pre-treated with P4 500 µg/mL 24 h, then RGNNV MOI 0.01, untreated cells 1.40 × 10^8)	Attached virus (AV), Log ± SEM (RGNNV [1]; E-11 cells pre-treated with P4 500 µg/mL for 24 h, then RGNNV MOI 0.01 for 45 min, triplicate)	Attached virus (AV) (RGNNV [1]; E-11 cells pre-treated with P4 500 µg/mL for 24 h, washed, infected with RGNNV MOI 0.01 for 45 min, AV = TIV − NAV, triplicate, untreated cells 9.20 × 10^5 in Table 2)	PR, production rate (RGNNV [1]; PR = VP/AV, P4 pre-treated E-11 cells, untreated cells 151.57)	RRP, relative ratio of production (RGNNV [1]; RRP = PR(P4+RGNNV)/PR(RGNNV))	Clinical signs of VER disease, severity score (RGNNV [2]; four-rank scale 1-4, sea bass, RGNNV bath challenge, 1 µg peptide/g i.m., Fig. 4B)	Relative percent survival (RPS) (RGNNV [2])	RGNNV cp gene expression in the brain (RGNNV [2])	RGNNV rdrp gene expression in the brain (RGNNV [2])	% of virus inhibition with respect to the controls, SJNNV (SJNNV)	% of virus inhibition with respect to the controls, RGNNV/SJNNV (RGNNV/SJNNV reassortant)
PDPTDNDHTFD-NH2 [Peptide P4]	87.4%	102.6%	92.4%	110.6%	100.5%	106.4%	98.99%	1.64 × 10^4 TCID₅₀/mL	3.36 × 10^3 TCID₅₀/mL	2.46 × 10^7 TCID50/mL	5.96 ± 0.005	9.21 × 10^5 TCID50/mL	26.76	0.18	1	81.3%	lowered	lowered		
PRLGHAARIFQRYA-NH2 [Peptide P3]	89.4%	93.2%	96.3%	89.8%	90.9%	101.7%										62.5%	lowered	lowered	90%	96.84%
TTKAANPQPRRRANNRRRS-NH2 [Peptide P1]	123.5%	129.9%	100.1%	96.6%	109.3%	91.5%													90%	
